Source: patent US8785377B2, “Tetrazolyl macrocyclic hepatitis C serine protease inhibitors” (Enanta Pharmaceuticals, Inc., priority 2006, dated 2014)

Assays:
[1] = target: full-length NS3 HCV protease 1b tethered with NS4A cofactor (Hepatitis C virus genotype 1b, UniProt Q9WMX2); test: NS3/NS4a Protease Enzyme Assay; format: biochemical
Experimental: HCV protease activity and inhibition is assayed using an internally quenched fluorogenic substrate. A DABCYL and an EDANS group are attached to opposite ends of a short peptide. Quenching of the EDANS fluorescence by the DABCYL group is relieved upon proteolytic cleavage. Fluorescence is measured with a Molecular Devices Fluoromax (or equivalent) using an excitation wavelength of 355 nm and an emission wavelength of 485 nm.
The assay is run in Corning white half-area 96-well plates (VWR 29444-312 [Corning 3693]) with full-length NS3 HCV protease 1b tethered with NS4A cofactor (final enzyme concentration 1 to 15 nM). The assay buffer is complemented with 10 μM NS4A cofactor Pep 4A (Anaspec 25336 or in-house, MW 1424.8). RET S1 (Ac-Asp-Glu-Asp(EDANS)-Glu-Glu-Abu-[COO]Ala-Ser-Lys-(DABCYL)-NH2, AnaSpec 22991, MW 1548.6) is used as the fluorogenic peptide substrate. The assay buffer contains 50 mM Hepes at pH 7.5, 30 mM NaCl and 10 mM BME. The enzyme reaction is followed over a 30 minutes time course at room temperature in the absence and presence of inhibitors.
The peptide inhibitors HCV Inh 1 (Anaspec 25345, MW 796.8) Ac-Asp-Glu-Met-Glu-Glu-Cys-OH, [−20° C.] and HCV Inh 2 (Anaspec 25346, MW 913.1) Ac-Asp-Glu-Dif-Cha-Cys-OH, are used as reference compounds.
IC50 values are calculated using XLFit in ActivityBase (IDBS) using equation 205: y=A+((B−A)/(1+((C/x)^D))).

[2] = system: HCV replicon RNA in Huh 11-7 cell line; test: Cell-Based Replicon Assay; settings: Hepatitis C virus, 96 h; Huh 11-7 cells, 4 days
Experimental: Quantification of HCV replicon RNA (HCV Cell Based Assay) is accomplished using the Huh 11-7 cell line (Lohmann, et al Science 285:110-113, 1999). Cells are seeded at 4×10^3 cells/well in 96 well plates and fed media containing DMEM (high glucose), 10% fetal calf serum, penicillin-streptomycin and non-essential amino acids. Cells are incubated in a 7.5% CO2 incubator at 37° C. At the end of the incubation period, total RNA is extracted and purified from cells using Ambion RNAqueous 96 Kit (Catalog No. AM1812). To amplify the HCV RNA so that sufficient material can be detected by an HCV specific probe (below), primers specific for HCV (below) mediate both the reverse transcription of the HCV RNA and the amplification of the cDNA by polymerase chain reaction (PCR) using the TaqMan One-Step RT-PCR Master Mix Kit (Applied Biosystems catalog no. 4309169). The nucleotide sequences of the RT-PCR primers, which are located in the NS5B region of the HCV genome, are the following:
Detection of the RT-PCR product is accomplished using the Applied Biosystems (ABI) Prism 7500 Sequence Detection System (SDS) that detects the fluorescence that is emitted when the probe, which is labeled with a fluorescence reporter dye and a quencher dye, is degraded during the PCR reaction. The increase in the amount of fluorescence is measured during each cycle of PCR and reflects the increasing amount of RT-PCR product. Specifically, quantification is based on the threshold cycle, where the amplification plot crosses a defined fluorescence threshold. […] The data is analyzed using the ABI SDS program version 1.7. […]
The RT-PCR product was detected using the following labeled probe: […]
To normalize the data to an internal control molecule within the cellular RNA, RT-PCR is performed on the cellular messenger RNA glyceraldehyde-3-phosphate dehydrogenase (GAPDH). […] GAPDH RT-PCR is performed on the same RNA sample from which the HCV copy number is determined. […] The ratio of HCV/GAPDH RNA is used to calculate the activity of compounds evaluated for inhibition of HCV RNA replication. […]

[3] = Pharmacokinetic analysis, single oral dose in rat; settings: in vivo, single oral dose of 20 mg/kg

full-length NS3 HCV protease 1b tethered with NS4A cofactor, sequence (Q9WMX2 1027-1657, other chains not shown): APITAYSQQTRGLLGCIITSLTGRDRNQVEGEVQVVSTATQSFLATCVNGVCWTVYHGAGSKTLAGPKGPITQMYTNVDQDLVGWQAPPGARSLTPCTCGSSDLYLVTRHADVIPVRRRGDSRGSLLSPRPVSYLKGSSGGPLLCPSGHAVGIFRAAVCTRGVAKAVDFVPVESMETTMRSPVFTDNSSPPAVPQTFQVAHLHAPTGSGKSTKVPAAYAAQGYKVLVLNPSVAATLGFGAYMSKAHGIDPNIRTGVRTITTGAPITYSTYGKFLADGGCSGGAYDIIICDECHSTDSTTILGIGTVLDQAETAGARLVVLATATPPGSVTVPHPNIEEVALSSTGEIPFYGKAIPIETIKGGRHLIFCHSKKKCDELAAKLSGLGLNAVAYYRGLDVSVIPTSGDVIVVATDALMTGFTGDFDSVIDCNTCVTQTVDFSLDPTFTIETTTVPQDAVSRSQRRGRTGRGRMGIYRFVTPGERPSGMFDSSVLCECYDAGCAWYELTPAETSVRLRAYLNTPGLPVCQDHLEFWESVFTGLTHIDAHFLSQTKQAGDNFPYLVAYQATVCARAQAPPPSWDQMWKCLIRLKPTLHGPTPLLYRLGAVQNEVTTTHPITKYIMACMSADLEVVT

Row | SMILES | IC50 [1] [nM] | EC50 [2] [nM] | AUC [3] [ng·h/mL] | Cmax [3] [ng/mL] | bioavailability [3] [%]
1 | COc1ccc(-c2nnn(C3CC4C(=O)NC5(C(=O)NS(=O)(=O)C6CC6)CC5C=CCCCCCC(NC(=O)OC5CCCC5)C(=O)N4C3)n2)cc1 (stereo not drawn) [Example 36] | 0.1 | 0.8 | 52900 | 16100 | 76
2 | COc1ccc(-n2nnc(C3CC4C(=O)NC5(C(=O)NS(=O)(=O)C6CC6)CC5C=CCCCCCC(NC(=O)OC5CCCC5)C(=O)N4C3)n2)cc1 (stereo not drawn) [Example 101] | 0.4 | 0.8 |  |  | 
3 | O=C(NC1CCCCCC=CC2CC2(C(=O)NS(=O)(=O)C2CC2)NC(=O)C2CC(n3nnc(-c4cccc5ccccc45)n3)CN2C1=O)OC1CCCC1 (stereo not drawn) [Example 117] | 0.2 | 0.8 |  |  | 
